Results published in patent US9211420B2, “Kit containing photosensitizing dyes” (Colgate-Palmolive Company, priority 2009, dated 2015).
“Also recorded” adds a separate entry of the source.

Tested on: TNFα of HEPM cells stimulated by IL-1β
Test: Cytokine concentration in IL-1β-stimulated cell culture after light plus photosensitizing dye
Assay type: cell-based, human
Conditions: Fast Green at 1000 ppm combined with light at 625 nm for 2 minutes (9 mW/cm^2, 1.1 J/cm^2)
Description: Cells used in this example include human embryonic palatal mesenchymal (HEFM) cells and oral keratinocytes OBA9 cells. The embodiments also can be used with other cells such as human gingival fibroblasts (HGF). Cells were seeded in 24-well plates and cultured until reaching a confluence above 80%. The confluent-stage cells were treated with stimulants such as IL-1β followed by light irradiation alone, or light irradiation combined with GRAS photosensitizing dye. The cells were either pre-incubated in photosensitizing dye before light exposure, or administered at the same time of light exposure. The cells were incubated in photosensitizing dyes for varied amounts of time, the concentration of photosensitizing dyes were varied, and the cell were irradiated with light for varied amounts of time per exposure, as well as irradiation either one time or multiple times, as described below. After irradiation, the cells were incubated at 37° C. The cell culture media was collected after a certain amount of time for cytokine analysis. The results tabulated below reveal that visible light (various wavelength, 380-700 nm) alone and photosensitizing dye irradiated with visible light (various wavelength, 380-700 nm) have anti-inflammation effect. […]

Structure (SMILES): CCN(Cc1cccc(S(=O)(=O)[O-])c1)c1ccc(C(=C2C=CC(=[N+](CC)Cc3cccc(S(=O)(=O)[O-])c3)C=C2)c2ccc(O)cc2S(=O)(=O)[O-])cc1.[Na+].[Na+] [Fast Green, Fast Green FCF (FD&C Green No. 3)]
- Effect on TNFα concentration in the in vitro cell culture: can decrease pro-inflammation cytokine TNFα concentration; also recorded: can reduce concentration of TNFα
